A melting point compilation (Tetko et al.; mined from patent text by program, amines drawn as free bases though some values may be those of a salt)

melting point [°C] | Structure (SMILES)
177 to 180 | CCCOc1ccc(S(=O)(=O)N2CCN(C(C)=O)CC2)c(-c2nc3cc(N)c(N)cc3c(=O)[nH]2)c1
150 | CNC(=O)NCC(C)(C)N
310 to 312 | O=C1OC(=O)c2cc3ccc(C(F)(F)F)cc3c3cccc1c23
250 to 252 | CC(=O)c1ccc(-n2c(-c3sc(NC(=O)c4ccccc4)nc3-c3ccccc3)nc3ccccc3c2=O)cc1
97 to 99 | CC(C)(C)OC(=O)N1C[C@H](C#N)C[C@H]1C(=O)OCc1ccccc1
240 to 241 | CNc1nnc(-c2ccc3occ(-c4ccc(S(C)=O)cc4)c3c2)o1 (stereo unspecified)
> 310 | O=C(O)c1cnc(-c2ccc(NC(=O)C(Cl)Cl)cc2)nc1O
172 | CCOC(=O)c1c(Cl)c2cccnc2[nH]c1=O
151 | CC(=O)OCC1OC(n2cc(F)c(=O)[nH]c2=O)CC1OC(C)=O (stereo unspecified)
129 to 130 | O=C(O)Cc1cccc(OCc2cn(-c3ccc(C(F)(F)F)cn3)nc2C2CCCCC2)c1
77 to 79 | CCc1nccn1CC(=O)c1ccc(-c2ccc(N3C[C@H](Cn4ccnn4)OC3=O)cc2F)cn1
249 to 253 | Cc1ccc2c(Cl)cc(S(=O)(=O)NCCc3ccc(N)cc3)c(O)c2n1
132 to 135 | CS(=O)(=O)c1ccc(-c2nn(CCc3ccccc3)c(C(F)(F)F)c2-c2ccc(F)cc2)cc1
59 | C=C(C)C(=O)c1ccc(OC)c(Cl)c1Cl
45 to 47 | COc1cccc(OC(=O)N2CCCC2=O)c1
135 to 136 | CC(=O)NCCCC(=O)N1CCCC(=O)c2ccc(Cl)cc2CCC1=O
65 to 66 | Cc1nc(-c2ccccc2)ncc1CBr
131 to 132 | Fc1ccc(-c2ncn(C3CCNCC3)c2-c2ccnc(Oc3ccc4c(c3)OCO4)n2)cc1
274 to 277 | O=C(O)CN1C(=O)C(=Cc2ccc([N+](=O)[O-])cc2)SC1=S
260 | Cc1c(-c2ccc(C#N)cc2)n[nH]c1C(=O)O
209 to 211 | Cn1ccc(C(=O)c2sc(NC(=O)c3ccncc3)nc2-c2ccco2)c1
110 to 112 | O=C(/C=C/C=C(c1ccccc1C(F)(F)F)c1ccccc1C(F)(F)F)NCCCCc1cccnc1
> 260 | O=C(O)Cc1cc(C(=O)C=Cc2ccc(C(=O)O)cc2)ccc1O
204 to 206 | CCn1c(=O)c2c(nc(/C=C/c3ccc(OC)c(O)c3)n2C)n(CC)c1=O
120 to 122 | N#CN1CCN(c2n[nH]c3ccccc23)CC1

melting point [°C] | Structure (SMILES)
255 to 257 | CCn1cc(C(=O)O)c(=O)c2cc(F)c(N3CC4CCC3CN4)c(F)c21 (stereo unspecified)
93 to 95 | FC(F)(F)c1ccc(C=Cc2nc(CCl)cs2)cc1
74 | CCNc1nc(NCC)nc(NCC)n1
178 to 180 | CCOC(=O)C(=O)c1csc(NC(=O)CCl)n1
198 to 200 | COc1ccc(CNC=C2C(=O)Nc3cc(OC)c(OC)cc32)cc1OC
132 to 133 | COc1ccc(C2CCN(C(=O)CC(N)=O)CC2)cc1OC1CCCC1
172 to 174 | Cc1nc(Sc2ncccc2CC(=O)O)sc1CC(=O)O
127 to 128 | CCCCc1nc(C(O)C(C)C)c(C#N)n1Cc1ccc(-c2ccccc2-c2nnnn2C(c2ccccc2)(c2ccccc2)c2ccccc2)cc1 (stereo unspecified)
150 to 151 | CS(=O)(=O)c1ccc(-c2nc(C(F)(F)F)sc2-c2ccc(F)cc2)cc1
191 to 193 | CN1CCN(c2nn(-c3ccc(O)cc3)c3ccccc23)CC1
93 to 95 | CC(C)NC(=O)Cc1cccc(N)c1
117 to 120 | CCOC(=O)Cc1ccc(NC(=O)C(CC(C)C)NS(=O)(=O)c2ccc(Cl)cc2)cc1 (racemic)
133 to 135 | CCc1nn(C2CCCC2)c2cc(C(=O)Nc3cccnc3)ccc12
90 | CCOC(=O)c1cc(F)cnc1NCc1ccc(OC)cc1
156 | CCN1Cc2cccc3scc(c23)S1(=O)=O
243 to 245 | NS(=O)(=O)c1cc2c(s1)SCC(=O)N2
80 to 81 | Cc1oc(-c2ccccc2)nc1COc1ccc(CCCBr)cc1
213 to 214 | COc1ccc(N2CCN(Cc3c[nH]c4ncccc34)CC2)cc1
227 to 229 | C[C@H](c1ccccc1)n1c(O)nc2c(Cl)nc3ccccc3c21
38 to 39 | CCCCCCCCCCCCCCC(=O)C(=O)N[C@@H](CCCC)C(=O)NCC(=O)OC(C)(C)C
129 to 132 | CCCCc1nc(Cl)c(C(=O)O)n1Cc1ccc2oc(-c3ccccc3-c3nnn[nH]3)c(C(C)(C)C)c2c1
210 to 212 | CSc1cnc2ccsc2c1O
196 to 198 | COc1ccc(-c2nn3c(N4CCCC4)nnc3c3ccccc23)cc1
164 to 166 | N#Cc1c(Br)cc(Br)c(CCC(=O)O)c1Br
228 to 230 | CCCCCCN(C)c1ccc(C=C2SC(=S)N(CC(=O)NC)C2=O)cc1

melting point [°C] | Structure (SMILES)
130 | CC(C)(C)c1cc(CC(O)=S)cc(C(C)(C)C)c1O
112 to 114 | CCOC(=O)CC(=O)N(C)c1ccc(Cl)cc1N
191 to 193 | CS(=O)(=O)c1ccc(-c2c(OCC(=O)c3ccc(F)cc3)nn(CC(=O)c3ccc(F)cc3)c2-c2ccc(F)cc2)cc1
165 | Cc1cc(C(F)(F)F)cc(N(C(N)=O)c2c(Cl)cccc2Cl)n1
187 to 189 | O=c1c(-c2ccccc2)ccc2n1CCc1sccc1-2
173 to 174 | CCCn1c(COC)nc2c(N)nc3ccc(OCCCOC(=O)N4CCOCC4)cc3c21
197 to 208 | CC(C)C(=O)c1c(C(C)(C)C)cc(C=[N+]([O-])C(C)(C)C)cc1C(C)(C)C
174 to 176 | Cc1ccc(-c2nn(C(C)(C)C)c(N)c2C#N)cc1
360 to 364 | NC(=O)c1nc(-c2cccc(O)c2)nc2c1[nH]c(=O)n2-c1ccccc1Cl
106 to 107 | O=C1c2ccccc2CN1CCOc1ccc(CO)cc1
195 to 196 | Cc1cc(C2=CC(=O)c3cccc(O)c3C2=O)c(C)[nH]1
160 to 162 | Cc1ccc(Cc2cnc(NCCCCc3ncc(I)cc3C)[nH]c2=O)cn1
124 to 126 | NC(=O)C1(Cl)CC2C3CC4C2C4C31 (stereo unspecified)
210 to 212 | Cc1c(C)c(OCC(=O)N2CCN(c3ccc(N=C(N)c4cccs4)cc3)CC2)c(C)c(C)c1O
161 to 163 | C=CCn1nc(C)c(C(=O)c2ccc(Cl)cc2Cl)c1O
131 to 133 | CC(C)CC(CO)NC(=O)OCC1c2ccccc2-c2ccccc21 (stereo unspecified)
158 to 160 | COC(=O)c1cc(C=O)c(NS(C)(=O)=O)c([N+](=O)[O-])c1
85 to 88 | COc1ccc2oc(C(=O)c3cccnc3N3CCOCC3)cc2c1
177 to 178 | CC(C)(C)CN(CC(O)C(Cc1ccccc1)NC(=O)C(CC(N)=O)NC(=O)NCc1ccccc1)C(=O)NC(C)(C)C (stereo unspecified)
124 to 125 | Cc1sc(-c2cn[nH]c2)nc1O
54 to 54.5 | COC(=O)CCCc1ccc(C(=O)Cc2ccccc2)cc1
81 to 82 | Cc1c(C(F)(F)F)cc([N+](=O)[O-])c(Cl)c1[N+](=O)[O-]
185 to 188 | CCC1C(=O)C2C3CCC(C(C)CCC(=O)O)C3(C)CCC2C2(C)CCC(O)CC12 (stereo unspecified)
139 to 141 | CCc1cccc(C)c1N(CCCC(=O)O)C(=O)CCN(C(C)=O)c1c(C)cccc1C
162 to 163 | CCN1CCC(N(C)S(=O)(=O)c2ccc(Nc3nccc(Nc4ccc(F)cc4)n3)cc2)CC1

melting point [°C] | Structure (SMILES)
151 to 153 | CCCC(=O)c1cnc2c(OC)cccc2c1Nc1c(C)cc(O)c(O)c1C
263 to 266 | O=C1NC(N2CCN(c3cnc(Cl)cn3)CC2)c2ccccc21 (stereo unspecified)
90 to 93 | N=C1c2c(F)cccc2S(=O)(=O)N1CC1CC1
232 to 233 | O=C1Nc2ccccc2N2CCc3cc(Cl)cc1c32
109 to 113 | COc1c(C)cc(C)cc1C(N)=O
158 to 162 | COc1ccc(C(=O)C=Cc2c(O)cc(OCCBr)cc2O)cc1O
150 to 153 | NC(=O)N(c1ccc(F)cc1)c1ccc(F)cc1
> 280 | NC(=O)Nc1cccc2c1C(=O)c1c-2n[nH]c1-c1ccsc1
228 to 229 | COc1ccc(C2=NOC(C)(c3nnc(S)n3N)C2)cc1OC1CCCC1 (stereo unspecified)
123 to 125 | COc1ccc(CCc2ccc(-n3c(C)nc4cnccc43)cc2)cc1OC1CCCC1
207 to 210 | Cc1nc(-c2ccccc2Cl)n2c1nnc1ccc(N3CCCCC3)cc12
90 to 94 | Cc1c(C)c2c(c(C)c1O)CCC(C)(C(=O)NCC1(c3ccc(-n4c(C)ccc4C)cc3)CCCC1)O2 (stereo unspecified)
205 to 207 | COC(=O)c1ccc(N2CCN(S(C)(=O)=O)CC2)nc1
298 to 303 | Nc1cc(-n2ccc(=O)cc2)ccc1[N+](=O)[O-]
158 to 159 | CC(C)(C)c1nn(-c2ccc(N)cc2Cl)c(=O)o1
66 to 67.5 | COC(=O)c1cncn1C1c2ccccc2CCC1(C)C (stereo unspecified)
117 to 120 | O=Cc1ccccc1-c1nc2ccccc2o1
75 to 77 | O=c1oc(OCCCCBr)c(Cl)c2ccccc12
136 to 138 | C=Cc1cc(-c2ccc(S(C)(=O)=O)cc2)n(CC2CCCCC2)n1
191 to 194 | CCCCOCCOc1ccc(-c2ccc3c(c2)C=C(C(=O)Nc2ccc(CCCn4cnnc4)cc2)CCN3CCC)cc1
133 to 134 | CC1OC(CN(C)C(=O)Nc2nnc(S(=O)(=O)N(C)C)s2)OC1C (stereo unspecified)
118 to 126 | CC1(C)NC(=O)N(CC#CI)C1=O
235 to 237 | CC(C)(C)c1cc(OCc2ccc(-c3nnn[nH]3)cc2)cc(C(C)(C)C)c1O

Structure (SMILES) | melting point [°C]
Cc1nnc2n1-c1ccc(Cl)cc1C(=S)NC2 | 298 to 303
Nc1ccc(CN2CCN(c3ccccc3)CC2)cc1 | 105
O[C@H](COc1cccc2[nH]ccc12)CN1CC=C(c2c[nH]c3cc(F)ccc23)CC1 | 95 to 100
